Data taken from article PMC5066151 (ACS Medicinal Chemistry Letters, 2016).
Values belong to the compound of their own block, whether it stands above or below them.

Key:
[1] = cited from earlier work
[2] = biological target: T1, recombinant human renin (rh-renin) (Homo sapiens, UniProt P00797); assay: Rh-renin inhibition assay; format: biochemical; settings: 3R,5S-enantiomer vs 3S,5R-enantiomer; rh-renin or hPRA assay
T1 sequence (P00797 67-406): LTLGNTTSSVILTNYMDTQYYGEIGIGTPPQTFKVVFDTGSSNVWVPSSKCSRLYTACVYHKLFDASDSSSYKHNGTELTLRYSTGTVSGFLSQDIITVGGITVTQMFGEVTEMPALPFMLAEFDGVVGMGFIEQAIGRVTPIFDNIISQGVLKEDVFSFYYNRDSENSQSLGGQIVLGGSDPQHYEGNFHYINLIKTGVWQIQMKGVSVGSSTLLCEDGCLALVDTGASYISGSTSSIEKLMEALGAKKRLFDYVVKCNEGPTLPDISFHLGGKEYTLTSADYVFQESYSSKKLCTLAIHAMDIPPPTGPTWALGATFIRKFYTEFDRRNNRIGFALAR

[3] = biological target: T2, endogenous renin in human plasma (Homo sapiens, UniProt P00797); assay: Human plasma renin activity; format: biochemical; settings: methoxypropylamino vs furfurylamine S3sp binder (compound 5)
T2 sequence (P00797 67-406): T1 sequence (P00797 67-406)

[4] = Pharmacokinetic analysis in rat cassette dosing; format: in vivo; settings: 1 mg/kg p.o., n = 3
[5] = biological target: pepsin (Homo sapiens, UniProt P0DJD8); assay: Selectivity against aspartic protease pepsin; format: biochemical
[6] = tested on: human-angiotensinogen and human-renin double transgenic rats (dTg rat); assay: Antihypertensive effect, systolic blood pressure by tail-cuff in dTg rat model

Chain of pepsin (P0DJD8 63-388): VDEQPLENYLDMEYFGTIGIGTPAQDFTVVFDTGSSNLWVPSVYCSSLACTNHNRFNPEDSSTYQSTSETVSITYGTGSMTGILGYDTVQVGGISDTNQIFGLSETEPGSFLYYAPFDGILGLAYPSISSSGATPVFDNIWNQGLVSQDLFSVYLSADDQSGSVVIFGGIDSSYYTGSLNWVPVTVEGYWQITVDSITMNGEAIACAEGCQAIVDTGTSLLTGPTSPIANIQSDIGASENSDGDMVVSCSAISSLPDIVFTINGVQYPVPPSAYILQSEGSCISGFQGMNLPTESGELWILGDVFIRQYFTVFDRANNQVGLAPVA

Compound: CC(C)CN(C(=O)c1cnc(C(C)(C)C)nc1NCc1ccco1)[C@H]1CCCNC1 [Compound 1]
oral bioavailability in rats [1]: 13.8%

Compound: COCCCCn1c(C(=O)N(CC(C)C)[C@@H]2CNC[C@H](C(=O)N3CCOCC3)C2)nc2ccccc21.Cl [Compound 10, 1-(4-methoxybutyl)-N-(2-methylpropyl)-N-[(3S,5R)-5-(morpholin-4-yl)carbonylpiperidin-3-yl]-1H-benzimidazole-2-carboxamide hydrochloride]
IC50 [5]: > 10 µM
antihypertensive efficacy (SBP) compared with aliskiren 75 mg/kg ([6]; 3 mg/kg p.o., 5 h after oral administration): comparable to that of aliskiren
antihypertensive efficacy (SBP) compared with aliskiren 75 mg/kg ([6]; 10 mg/kg p.o., 5 and 24 h after administration): exceeded that of aliskiren
antihypertensive efficacy (SBP) ([6]; 3 and 10 mg/kg p.o., SBP at 5 and 24 h): potent and long-lasting antihypertensive efficacy in a dose-dependent manner

More lines, now with the values ahead:

fold more potent toward renin than its enantiomer 4 [2]: about 30 fold
Compound: COC(=O)[C@H]1CNC[C@@H](N(CC(C)C)C(=O)c2cnc(C(C)(C)C)nc2NCc2ccco2)C1 [Compound 5]

fold decrease in renin inhibitory activity relative to the furfurylamine moiety [3]: 10 fold
Compound: COCCCNc1nc(C(C)(C)C)ncc1C(=O)N(CC(C)C)[C@@H]1CNC[C@H](C(=O)OC)C1 [Compound 6]

AUCpo [4]: not detected
Compound: COCCCNc1nc(C(C)(C)C)ncc1C(=O)N(CC(C)C)[C@@H]1CNC[C@H](C(=O)N2CCOCC2)C1 [Compound 8]
